How the values were obtained:
[1] = cited from earlier work
[2] = removal of gold-containing cations from water by ligand-based MIP; conditions: ligand used in cationic molecularly imprinted polymer
Text: (§1) General classes of cationic ligands that can be used in the present method include, but are not limited to, cationic oxygen containing heterocyclics, cationic nitrogen containing heterocyclics, cationic sulfur containing heterocyclics, cationic phosphorous containing heterocyclics, ammonium salts, phosphonium salts, acylinium salts, metallocenium salts, amidinium salts, imminium salts, and trityl salts. In one embodiment, the ligand can be 4-vinylbenzyl-N,N-dimethyl-N-decylammonium, 4-vinylbenzyl-N-decyl-N-methylglucammonium, N-methyl vinylpyridinium, or 4-vinylbenzyl-N,N-dimethyl-D-glucammonium.

[3] = removal of arsenate from water by ligand-based MIP; conditions: ligand used in suspension polymerization MIP
Text: as §1

| SMILES | miscibility with water [1] | removal of arsenate from water [3] | other results |
| --- | --- | --- | --- |
| OCCCCCO [1,5-pentanediol] | completely miscible | – | – |
| C=Cc1ccc(C[N+](C)(C)CCCCCCCCCC)cc1.[Cl-] [Example 1, N-(4-vinylbenzyl)-N-decyl-N,N-dimethylammonium chloride] | – | good results | removal of gold-containing cations from water [2]: particularly good results |
| CCCCC [n-pentane] | completely immiscible | – | – |
| C=Cc1ccc(C[N+](C)(CCCCCCCCCC)C[C@H](O)[C@@H](O)[C@H](O)[C@H](O)CO)cc1.[I-] (stereo partly drawn) [Example 3, N-(4-Vinylbenzyl)-N-decyl-N-methylglucammonium iodide] | – | good results | – |
| CCCCCO [Example 1-pentanol, 1-pentanol] | – | – | soluble in water ([1]; in water): 2.3 % weight/weight |

— patent US7476316B2, “Molecularly imprinted polymers (MIPS) for the selective removal of inorganic contaminants from liquids” (priority 2005, dated 2009)
